What was measured:
human 20S proteasome β1 = target: T1, human 20S proteasome β1 (Homo sapiens, UniProt P28072); assay: 20S Proteasome Assay, β1 selective substrate (Z-LLE-AMC); format: biochemical; conditions: typically tested as mannitol esters; for inhibition at 0.41 µM: concentration 0.41 μM; for inhibition at 0.33 µM: concentration 0.33 μM
T1 construct: purchased Boston Biochem
Method: (§1) β1 Selective substrate: To 1 μL of test compound dissolved in DMSO in a 384-well microtiter plate is added 25 μL of assay buffer at 37° C. containing human PA28 activator (Boston Biochem, 12 nM final) with Z-LLE-AMC ([…]1 selective substrate) (15 μM final), followed by 25 μL of assay buffer at 37° C. containing human 20S proteasome (Boston Biochem, 0.25 nM final). Assay buffer is composed of 20 mM HEPES, 0.5 mM EDTA and 0.01% BSA, pH7.4. The reaction is followed on a BMG Galaxy plate reader (37° C., excitation 380 nm, emission 460 nm, gain 20). Percent inhibition is calculated relative to 0% inhibition (DMSO) and 100% inhibition (10 μM bortezomib) controls. Compound of formula (I) are typically tested in this assay as their mannitol esters (prepared as described above). The mannitol esters are hydrolyzed to the free active boronic acid species.

human 20S proteasome β5 = target: T2, human 20S proteasome β5 (Homo sapiens, UniProt P28074); assay: 20S Proteasome Assay, β5 selective substrate (Ac-WLA-AMC); format: biochemical; conditions: concentration 0.41 μM; typically tested as mannitol esters
T2 construct: purchased Boston Biochem
Method: as §1, with “β5” for “β1”, “384-well black” for “384-well”, “Ac-WLA-AMC (β5” for “Z-LLE-AMC ([…]1”

inhibition at 0.41 µM (human 20S proteasome β1) | inhibition at 0.41 µM (human 20S proteasome β5) | inhibition at 0.33 µM (human 20S proteasome β1) | Compound
82.7% | 90.8% | – | O=C(c1cccc(S(=O)(=O)N[C@@H](Cc2ccccc2)C(=O)N[C@@H](CC2CC2)B(O)O)c1)c1ccccn1 [Compound 16, ((1R)-2-cyclopropyl-1-{[(2S)-3-phenyl-2-({[3-(pyridin-2-ylcarbonyl)phenyl]sulfonyl}amino)propanoyl]amino}ethyl)boronic acid]
– | 81.9% | 93% | O=C(N[C@@H](Cc1ccccc1)C(=O)N[C@@H](CC1CC1)B(O)O)c1cnccn1 [Compound 12, [(1R)-2-cyclopropyl-1-({(2S)-3-phenyl-2-[(pyrazin-2-ylcarbonyl)amino]propanoyl}amino)ethyl]boronic acid]
66.7% | 83.7% | – | CN1C(=O)Cc2cc(S(=O)(=O)N[C@@H](Cc3ccccc3)C(=O)N[C@@H](CC3CC3)B(O)O)ccc21 [Compound 13, {(1R)-2-cyclopropyl-1-[((2S)-2-{[(1-methyl-2-oxo-2,3-dihydro-1H-indol-5-yl)sulfonyl]amino}-3-phenylpropanoyl)amino]ethyl}boronic acid]
– | 93.3% | 91.1% | O=C(N[C@@H](Cc1ccccc1)C(=O)N[C@@H](CC1CC1)B(O)O)c1cc(Cl)ccc1Cl [Compound 9, [(1R)-2-cyclopropyl-1-({(2S)-2-[(2,5-dichlorobenzoyl)amino]-3-phenylpropanoyl}amino)ethyl]boronic acid]
70.7% | 89% | – | O=C(N[C@@H](CC1CC1)B(O)O)[C@H](Cc1ccccc1)NS(=O)(=O)c1ccc(Oc2cccnc2)cc1 [Compound 2, ((1R)-2-cyclopropyl-1-{[(2S)-3-phenyl-2-({[4-(pyridin-3-yloxy)phenyl]sulfonyl}amino)propanoyl]amino}ethyl)boronic acid]
77.1% | 90.3% | – | O=C1COc2cc(S(=O)(=O)N[C@@H](Cc3ccccc3)C(=O)N[C@@H](CC3CC3)B(O)O)c(Cl)cc2N1 [Compound 15, {(1R)-1-[((2S)-2-{[(6-chloro-3-oxo-3,4-dihydro-2H-1,4-benzoxazin-7-yl)sulfonyl]amino}-3-phenylpropanoyl)amino]-2-cyclopropylethyl}boronic acid]
65.4% | 92.9% | – | O=C(N[C@@H](CC1CC1)B(O)O)[C@H](Cc1ccccc1)NS(=O)(=O)c1ccc(-c2cnco2)cc1 [Compound 6, ((1R)-2-cyclopropyl-1-{[(2S)-2-({[4-(1,3-oxazol-5-yl)phenyl]sulfonyl}amino)-3-phenylpropanoyl]amino}ethyl)boronic acid]
75.7% | 93.1% | – | O=C(N[C@@H](CC1CC1)B(O)O)[C@H](Cc1ccccc1)NS(=O)(=O)c1ccc(Oc2ccncc2)cc1 [Compound 14, ((1R)-2-cyclopropyl-1-{[(2S)-3-phenyl-2-({[4-(pyridin-4-yloxy)phenyl]sulfonyl}amino)propanoyl]amino}ethyl)boronic acid]
71.9% | 89.7% | – | O=C(N[C@@H](CC1CC1)B(O)O)[C@H](Cc1ccccc1)NS(=O)(=O)c1cccc2cnccc12 [Compound 17, [(1R)-2-cyclopropyl-1-({(2S)-2-[(isoquinolin-5-ylsulfonyl)amino]-3-phenylpropanoyl}amino)ethyl]boronic acid]
67.2% | 91.8% | – | O=C(N[C@@H](CC1CC1)B(O)O)[C@H](Cc1ccccc1)NS(=O)(=O)c1ccc(Oc2ccccn2)cc1 [Compound 1, ((1R)-2-cyclopropyl-1-{[(2S)-3-phenyl-2-({[4-(pyridin-2-yloxy)phenyl]sulfonyl}amino)propanoyl]amino}ethyl)boronic acid]
73.2% | 89.8% | – | O=C(N[C@@H](CC1CC1)B(O)O)[C@H](Cc1ccccc1)NS(=O)(=O)c1ccc2ncsc2c1 [Compound 4, [(1R)-1-({(2S)-2-[(1,3-benzothiazol-6-ylsulfonyl)amino]-3-phenylpropanoyl}amino)-2-cyclopropylethyl]boronic acid]
81.3% | 93% | – | O=C(N[C@@H](CC1CC1)B(O)O)[C@H](Cc1ccccc1)NS(=O)(=O)c1cccc(Oc2ccc(C(F)(F)F)cn2)c1 [Compound 7, {(1R)-2-cyclopropyl-1-[((2S)-3-phenyl-2-{[(3-{[5-(trifluoromethyl)pyridin-2-yl]oxy}phenyl)sulfonyl]amino}propanoyl)amino]ethyl}boronic acid]
